Results from US20210283151A1, “USE OF COMPOUND IN DRUG FOR PREVENTING, TREATING, OR ALLEVIATING PAIN” (ASCENTAWITS PHARMACEUTICALS, LTD., priority 2018, published 2021).

Legend:
[1] = test system: prostaglandin E2; assay: Serum prostaglandin E2 by ELISA after single intravenous infusion to cynomolgus monkeys; type: in vivo, cynomolgus monkey; conditions: for The measured concentration of prostaglandin E2: 1 mg/kg intravenous infusion; for The measured concentration of prostaglandin E2, Mean: mean of 3 animals, before administration 469.60
Method: (§1) An experiment with three cynomolgus monkeys was performed according to the table below.
(§2) Four male cynomolgus monkeys were purchased from Guangxi Xiongsen Primate Development and Experiment Co., Ltd., and all of them were healthy cynomolgus monkeys that had passed the physical examination and have no abnormalities. Among them, three cynomolgus monkeys were used in the experiment of administration and the remaining one was used for preparing blank plasma.
(§3) Before administration, and 6, 24, 48 and 72 hours after the start of administration, 1 mL of blood was collected from the femoral vein or other suitable vein, and placed in a blood collection tube without anticoagulant. After collected, the blood sample was placed on ice and allowed to stand for 30-60 minutes before being centrifuged at 3,500 rpm for 10 minutes at 2-8° C. to separate the serum. The collected serum was stored at −80° C. before being analyzed.
(§4) Prostaglandins E2 and F2 in serum samples were analyzed by conventional ELISA methods. The measurement results are as follows.
(§5) The concentrations of prostaglandins E2 and F2 in the serum after single administration to cynomolgus monkeys by intravenous infusion

[2] = test system: prostaglandin F2; assay: Serum prostaglandin F2 by ELISA after single intravenous infusion to cynomolgus monkeys; type: in vivo, cynomolgus monkey; conditions: for The measured concentration of prostaglandin F2: 1 mg/kg intravenous infusion; for Effect on prostaglandin F2 content (in words): cynomolgus monkeys, after administration (0.58 mg/kg as printed in b199), fluctuating increase at 24 h; for The measured concentration of prostaglandin F2, Mean: mean of 3 animals, before administration 1088.09
Method: as §1, §2, §3, §4, §5

[3] = target: T1, AKR1C3 (Homo sapiens, UniProt P42330); assay: In vitro AKR1C3 activity: production of reduced progesterone (20α-dihydroprogesterone) by LC/MS; type: biochemical; conditions: reaction 30 min; for AKR1C3 activity % / activity at 5 µM: negative control = 100
T1 sequence (P42330 1-323): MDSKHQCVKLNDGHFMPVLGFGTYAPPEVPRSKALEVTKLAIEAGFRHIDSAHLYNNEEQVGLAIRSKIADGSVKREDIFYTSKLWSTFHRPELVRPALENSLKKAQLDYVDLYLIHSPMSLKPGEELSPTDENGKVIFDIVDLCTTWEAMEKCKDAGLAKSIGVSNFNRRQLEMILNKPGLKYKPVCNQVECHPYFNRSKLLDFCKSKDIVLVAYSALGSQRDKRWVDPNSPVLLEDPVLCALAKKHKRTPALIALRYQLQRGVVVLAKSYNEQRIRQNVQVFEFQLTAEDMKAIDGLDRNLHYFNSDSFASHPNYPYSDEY
Method: Experimental apparatus: Waters Acquity I Class UPLC Ultra Performance Liquid Chromatograph equipped with a Xevo G2-XS Q Tof HRMS Quadrupole Time-of-flight High-Resolution Mass Spectrometer
1. PBS phosphate buffered saline solution,
2. PBS phosphate buffered saline solution of 20 mM NADPH
3. PBS phosphate buffered saline solution of 250 μg/mL AKR1C3
5. 50% MeOH/H2O solution of 250 μM progesterone
6. 100% acetonitrile solution of 1 μg/mL propranolol
In step 1, the reaction mixtures were prepared into Eppendorf tubes in quadruplicate (n=4) according to the table below and mixed gently.
In step 2, the above mixtures were pre-incubated in duplicate at 37° C. for 30 minutes and 60 minutes.
In step 3, another 10 μL of PBS phosphate buffered saline solution of 20 mM NADPH and 2 μL of 50% MeOH/H2O solution of 250 μM progesterone were added to each Eppendorf tube and mixed gently.
In step 4, 50 μL of the mixture in the above step was immediately transferred to 100 μL of 100% acetonitrile solution of 1 μg/mL propranolol (internal standard (IS)).
In step 5, the remaining samples were incubated at 37° C. for 30 minutes, and 100 μL of 100% acetonitrile solution of 1 μg/mL propranolol (internal standard (IS)) was added.
In step 6, 100 μL of reagent water was added to all the samples, vortexed at 1,100 rpm for 5 minutes, and centrifuged at 15,000 rpm for 10 minutes at room temperature.
In step 7, all the samples were loaded on LC/MS to determine the content of reduced progesterone, namely 20α-dihydroprogesterone.
The test conditions for the LC-MS apparatus are shown below
In step 9, the reduced progesterone (20α-dihydroprogesterone) is calculated: the peak area of the reduced progesterone, namely 20α-dihydroprogesterone and propranolol, in each sample was determined by LC/MS. The peak area ratios of reduced progesterone to propranolol (i.e., the ratios in the above table) were calculated, and when the time is 0 the ratio is set to 0%.
AKR1C3 activity (%)=[(the amount of reduced progesterone after normalization of the sample) 30 min−(the amount of reduced progesterone after normalization of the sample) 0 min]/[(the amount of reduced progesterone after normalization of the negative control group) 30 min−(the amount of reduced progesterone after normalization of the negative control group) 0 min]*100.
The AKR1C3 activity results in the above table were calculated according to the above formula.

[4] = animal 101, 6 h after start of administration
[5] = animal 101, 24 h after start of administration
[6] = animal 101, 48 h after start of administration
[7] = animal 101, 72 h after start of administration
[8] = animal 102, 6 h after start of administration
[9] = animal 102, 24 h after start of administration
[10] = animal 102, 48 h after start of administration
[11] = animal 102, 72 h after start of administration
[12] = animal 103, 6 h after start of administration
[13] = animal 103, 24 h after start of administration
[14] = animal 103, 48 h after start of administration
[15] = animal 103, 72 h after start of administration
[16] = 5 μM AST-3424, pre-incubation 30 min at 37° C.
[17] = 5 μM AST-3424, pre-incubation 60 min at 37° C.

Peak area ratio of reduced progesterone to propranolol ([3]; pre-incubation 30 min, negative control 0.1506): 0.0074 | Peak area ratio of reduced progesterone to propranolol ([3]; pre-incubation 60 min, negative control 0.1343): 0.0137
Compound: C[C@H](OP(=O)(N1CC1)N1CC1)c1ccc([N+](=O)[O-])c(Oc2cccc(C(=O)N(C)C)c2)c1 [AST-3424]
The measured concentration of prostaglandin E2 [1, 4]: 210.67 pg/mL | The measured concentration of prostaglandin E2 [1, 5]: 450.48 pg/mL | The measured concentration of prostaglandin E2 [1, 6]: 322.13 pg/mL | The measured concentration of prostaglandin E2 [1, 7]: 408.15 pg/mL | The measured concentration of prostaglandin E2 [1, 8]: 214.73 pg/mL | The measured concentration of prostaglandin E2 [1, 9]: 822.21 pg/mL | The measured concentration of prostaglandin E2 [1, 10]: 168.84 pg/mL | The measured concentration of prostaglandin E2 [1, 11]: 521.78 pg/mL | The measured concentration of prostaglandin E2 [1, 12]: 670.73 pg/mL | The measured concentration of prostaglandin E2 [1, 13]: 2735.20 pg/mL | The measured concentration of prostaglandin E2 [1, 14]: 276.35 pg/mL | The measured concentration of prostaglandin E2 [1, 15]: 663.03 pg/mL | Effect on prostaglandin E2 content (in words) ([1]; cynomolgus monkeys, after administration (0.58 mg/kg), fluctuating increase at 24 h): decreased | The measured concentration of prostaglandin E2, Mean ([1]; 6 h): 365.38 pg/mL | The measured concentration of prostaglandin E2, Mean ([1]; 24 h): 1335.97 pg/mL | The measured concentration of prostaglandin E2, Mean ([1]; 48 h): 255.78 pg/mL | The measured concentration of prostaglandin E2, Mean ([1]; 72 h): 530.99 pg/mL | The measured concentration of prostaglandin F2 [2, 4]: 165.32 pg/mL | The measured concentration of prostaglandin F2 [2, 5]: 816.63 pg/mL | The measured concentration of prostaglandin F2 [2, 6]: 183.73 pg/mL | The measured concentration of prostaglandin F2 [2, 7]: 441.76 pg/mL | The measured concentration of prostaglandin F2 [2, 8]: 260.80 pg/mL | The measured concentration of prostaglandin F2 [2, 9]: 3460.25 pg/mL | The measured concentration of prostaglandin F2 [2, 10]: 216.12 pg/mL | The measured concentration of prostaglandin F2 [2, 11]: 968.01 pg/mL | The measured concentration of prostaglandin F2 [2, 12]: 300.65 pg/mL | The measured concentration of prostaglandin F2 [2, 13]: 4208.19 pg/mL | The measured concentration of prostaglandin F2 [2, 14]: 541.05 pg/mL | The measured concentration of prostaglandin F2 [2, 15]: 1369.67 pg/mL | Effect on prostaglandin F2 content (in words) ([2]; 0.58 mg/kg): greatly reduce the content of PGF2 | Effect on prostaglandin F2 content (in words) ([2]; listed as AST3424, 0.58 mg/kg): decreased | The measured concentration of prostaglandin F2, Mean ([2]; 6 h): 242.26 pg/mL | The measured concentration of prostaglandin F2, Mean ([2]; 24 h): 2828.36 pg/mL | The measured concentration of prostaglandin F2, Mean ([2]; 48 h): 313.63 pg/mL | The measured concentration of prostaglandin F2, Mean ([2]; 72 h): 926.48 pg/mL | AKR1C3 activity % [3, 16]: 3.9% | activity at 5 µM [3, 16]: 3.9% | AKR1C3 activity % [3, 17]: 9.2% | activity at 5 µM [3, 17]: 9.2%
